Earlier results, collected in patent publication US20060201863A1, “Sterilization water tank” (priority 2003, published 2006).

Experiments:
[1] = tested on: Bacteria; conditions: against Bacteria
[2] = tested on: Colitis germs; conditions: against Colitis germs
[3] = tested on: Staphylococcus; conditions: against Staphylococcus
[4] = tested on: Pseudomonas aeruginosa; conditions: against Pseudomonas aeruginosa
[5] = tested on: Salmonella; conditions: against Salmonella
[6] = tested on: Pneumonia bacillus; conditions: against Pneumonia bacillus
[7] = tested on: Rice-straw bacillus; conditions: against Rice-straw bacillus
[8] = tested on: Colitis germs; conditions: silver in an ionized state

Question: Which “MIC (minimum inhibitory concentration)” value [1] does the source give for `[Cu+2]` [Copper ion, reference compound] here?
Answer: Its value is 400 ppm.

Question: What about the “MIC (minimum inhibitory concentration)” value [2] of the same compound?
Answer: The value was 200 ppm.

Question: What about the “MIC (minimum inhibitory concentration)” value [3] of the same compound?
Answer: Its value is 400 ppm.

Question: What about the “MIC (minimum inhibitory concentration)” value [4] of the same compound?
Answer: Its value is 400 ppm.

Question: And the “MIC (minimum inhibitory concentration)” value [5]?
Answer: Its value is 400 ppm.

Question: What about the “MIC (minimum inhibitory concentration)” value [6] of the same compound?
Answer: The value was 200 ppm.

Question: And the “MIC (minimum inhibitory concentration)” value [7]?
Answer: Its value is 400 ppm.

Question: With `[Ag+]` [Silver ion] as the compound, how does the “MIC (minimum inhibitory concentration)” value [1] read?
Answer: The value was 0.78 ppm.

Question: What about the “MIC (minimum inhibitory concentration)” value [2] of the same compound?
Answer: The value was 6.3 ppm.

Question: What about the “MIC (minimum inhibitory concentration)” value [3] of the same compound?
Answer: Its value is 0.78 ppm.

Question: And the “MIC (minimum inhibitory concentration)” value [4]?
Answer: The value was 0.78 ppm.

Question: What about the “MIC (minimum inhibitory concentration)” value [5] of the same compound?
Answer: The value was 0.78 ppm.

Question: What about the “MIC (minimum inhibitory concentration)” value [6] of the same compound?
Answer: The value was 0.78 ppm.

Question: What about the “MIC (minimum inhibitory concentration)” value [7] of the same compound?
Answer: Its value is 1.56 ppm.

Question: What about the “amount that may kill colitis germs” value [8] of the same compound?
Answer: The value was “about several ten”.
